The nature of one data set: in vivo. The following applies: male, rat, po, 6 mg/kg.
A short description of data set [1]: Stability of compound A and its salts, content by HPLC. It is filed as physicochemical. Conditions: for Content by HPLC after storage: raw material purity 98.6%. On the procedure: (1) Content Determination Method
With a Octadecyl silane chemically bonded silica as bulking agent and 0.1% aqueous solution of ammonia-acetonitrile (65:35) as mobile phase, eluted in gradient mode at detection wavelength of 230 nm. Appropriate amount of test sample and reference solution was taken, then water was added to dissolve which to form solutions every 1 ml containing 0.2 mg of them respectively. The test sample solution and reference solution 10 μl was respectively taken and injected into the liquid chromatograph. chromatograph chart was recorded, and calculated by peak area according to the external standard method.
The stability of different types of the pharmaceutically acceptable salts of compound A under different conditions

Data set [2] relates to genetic obese Wistar rats with diabetes. Nature of the data set: Oral glucose tolerance test in genetic obese Wistar rats with diabetes. It is filed as in vivo, rat. Conditions: for Plasma glucose: 30 mg/kg/day p.o. for 7 days, mean ± SD. On the procedure: 13˜14 week-old male fat rats were divided into five groups, each group five. They were respectively administered the 6 salts of compound A (each 30 mg/kg/day, p.o.) for 7 days. After overnight fasting, oral glucose tolerance tests were conducted immidiately (2 g glucose/kg/5 ml, p.o.). Before and 120 and 240 mins after the glucose tolerance test, blood was collected from the tail vein, and plasma glucose was analyzed by enzymatic method (Encore Chemical System; Baker). Results were expressed as mean value of each group (n=5-6)±standard deviation analyzed by Dunnett's test which were shown in table 3.

The test system is the same in data set [3]. Nature of the data set: Effects of the 6 salts in genetic obese Wistar rats with diabetes (14 days). It is filed as in vivo, rat. The following applies: for Hemoglobin (hemoglobin A1) / Plasma glucose: male Wistar fat rats, 10 mg/kg/day p.o. in feed, mean ± SD, n=5-6. On the procedure: 14 to 19 week-old male Wistar fat rats were divided into five groups, each to group 5 to 6, and they were respectively administered the 6 salts of compound A (each 10 mg/kg weight/day, p.o.) which were mixed in commercial feed at a ratio of […] for 14 days. The blood was taken from tail vein, a commercial kits (NC-ROPET, Nippon Chemiphar CO.) was used to measure plasma glucose and hemoglobin A1 by enzymatic is method. The results were expressed as mean value of each group (n=5-6)±standard deviation and analyzed by Dunnett's test which were shown in table 2. A significance level of 1% was used.

Data set [4] in a line: Absorption tests in rats of different salts (pharmacokinetics). The following applies: rat, 6.0 mg/kg (by base) by gavage; for t1/2: 0.5% CMC-Na suspension.
Description: (§1) 16 healthy male rats weighing 200˜220 g were randomly divided into four groups. […] The plasma was separated, preserved for test under −20° C. The blood concentration was tested by HPLC-Tandem Mass Spectrum.
[5] abbreviates: 0 min (before glucose load 2 g/kg p.o.).
The mark [6] stands for this setting: 120 min after glucose load 2 g/kg p.o.
[7] abbreviates: 240 min after glucose load 2 g/kg p.o.

Description for in vivo: as §1

In the data set “in vivo”, `COC(=O)c1nc(C(F)(F)F)n2c1CN(C(=O)C[C@H](N)Cc1cc(F)c(F)cc1F)CC2` [Compound A, (R)-7-[3-amino-4-(2,4,5-trifluoro-phenyl)-butyryl]-3-trifluoromethyl-5,6,7,8-tetrahydro-imidazo[1,5-a]pyrazine-1-carboxylic acid methyl ester] gave an AUC0-t of 409 ng·h/mL, an AUC(0-inf) of 425 ng·h/mL, a CL/F of 545 mL/min/kg and a Cmax of 242 ng/mL. Besides, in the data set “in vivo”, the MRT was determined as 1.96 h, the Tmax was found to be 0.5 h and the half-life is 1.54 h. Moreover, in data set [1] (40° C., 10 days), the “Content by HPLC after storage” value was determined as 95.2%. In addition, the “Content by HPLC after storage” value in data set [1] (60° C., 10 days) was 95.7%. Besides, the “Content by HPLC after storage” value in data set [1] (Light, 10 days) is 95.2%. In data set [1] (RH60%, 25° C., nine months), the “Content by HPLC after storage” value is 93.3%. In addition, the “Content by HPLC after storage” value in data set [1] (RH75%, 40° C., six months) is 92.2%.

`COC(=O)c1nc(C(F)(F)F)n2c1CN(C(=O)C[C@H](N)Cc1cc(F)c(F)cc1F)CC2.Cl` [Hydrochloride of compound A, hydrochloride of (R)-7-[3-amino-4-(2,4,5-trifluoro-phenyl)-butyryl]-3-trifluoromethyl-5,6,7,8-tetrahydro-imidazo[1,5-a]pyrazine-1-carboxylic acid methyl ester] came in with a Plasma glucose in data set [2] (setting [5]) of 109 ± 5 mg/dL. Moreover, the “Effect on increase of blood sugar after the glucose tolerance test in words” value in data set [2] (30 mg/kg/day p.o., 7 days) is recorded as “significantly inhibited the increase of blood sugar”. The molecule further showed a Plasma glucose in data set [2] (setting [6]) of 116 ± 7 mg/dL. Besides, the Plasma glucose in data set [2] (setting [7]) amounted to 106 ± 3 mg/dL. Besides, in data set [3] (Wistar fat rats, 10 mg/kg/day), the “Effect on blood glucose and hemoglobin in words” value is “reduce the concentration of blood glucose and hemoglobin obviously”. In data set [3], the “Hemoglobin (hemoglobin A1)” value worked out at 4.5 ± 0.5 and the Plasma glucose is 165 ± 13. In addition, in data set [4], the AUC0-t was 317 ng·h/mL, the “AUC0-∞” value came to 319 ng·h/mL, the CL/F turned out to be 348 mL/min/kg and the Cmax came to 148 ng/mL. In data set [4], the MRT is recorded as 1.86 h, the Tmax worked out at 0.63 h and the t1/2 was 1.07 h. The “Content by HPLC after storage” value in data set [1] (40° C., 10 days) was found to be 98.7%. Besides, the “Content by HPLC after storage” value in data set [1] (60° C., 10 days) is recorded as 98.2%. In data set [1] (Light, 10 days), the “Content by HPLC after storage” value stood at 98.1%. Besides, the “Content by HPLC after storage” value in data set [1] (RH60%, 25° C., nine months) was 97.5%. The “Content by HPLC after storage” value in data set [1] (RH75%, 40° C., six months) turned out to be 97.7%. Also, in data set [1] (conclusion over all storage conditions), the “Stability test result in words” value was “most satisfying”.

Regarding `COC(=O)c1nc(C(F)(F)F)n2c1CN(C(=O)CC(N)Cc1cc(F)c(F)cc1F)CC2.CS(=O)(=O)O` (stereo not shown) [Mesylate of compound A], the Plasma glucose in data set [2] (setting [5]) was 108 ± 8 mg/dL. In data set [2] (setting [6]), this molecule returned a Plasma glucose of 115 ± 9 mg/dL. Further, in data set [2] (setting [7]), the Plasma glucose turned out to be 92 ± 7 mg/dL. Moreover, in data set [3], the “Hemoglobin (hemoglobin A1)” value was found to be 5.8 ± 0.4 and the Plasma glucose stood at 287 ± 34. Besides, in data set [4], the AUC0-t was determined as 274 ng·h/mL, the “AUC0-∞” value was 275 ng·h/mL, the CL/F stood at 397 mL/min/kg and the Cmax is listed as 133 ng/mL. Moreover, in data set [4], the MRT is on record as 1.61 h, the Tmax was found to be 0.88 h and the t1/2 was 0.87 h. The “Content by HPLC after storage” value in data set [1] (40° C., 10 days) came out at 96.7%. The “Content by HPLC after storage” value in data set [1] (60° C., 10 days) was 96.5%. Moreover, the “Content by HPLC after storage” value in data set [1] (Light, 10 days) is given as 97.6%. The “Content by HPLC after storage” value in data set [1] (RH60%, 25° C., nine months) was 95.6%. Besides, the “Content by HPLC after storage” value in data set [1] (RH75%, 40° C., six months) came to 95.4%.

A word on the AUC(0-inf): it is total exposure, with the tail of the curve extrapolated. Read a low AUC(0-inf) as less exposure. By CL/F is commonly meant clearance divided by bioavailability, as obtained after extravascular dosing. In general, Cmax refers to the maximum level reached in the sampled fluid or tissue. As a reminder, the MRT is a mean duration of stay, worked out from the concentration-time curve. In general, Tmax refers to the time from dosing to the highest level. One may read the half-life as the time in which the quantity being followed falls by half. Read a low half-life as fast loss.
